In patent publication US9902725B2, “Heterocyclic derivatives as RORgamma modulators” (GENFIT, priority 2014, dated 2018):

Tests used:
[1] = target: T1, RORγt ligand-binding domain (RORγt-LBD) (Homo sapiens, UniProt P51449); experiment: Time-resolved FRET (TR-FRET) RORγt coactivator assay; type: biochemical; settings: GST-RORγ-LBD, biotinylated RIP140 peptide, coactivator displacement
T1 construct: 20 nM recombinantly expressed RORγ-LBD fused to GST
T1 sequence (P51449 269-508 limits assumed): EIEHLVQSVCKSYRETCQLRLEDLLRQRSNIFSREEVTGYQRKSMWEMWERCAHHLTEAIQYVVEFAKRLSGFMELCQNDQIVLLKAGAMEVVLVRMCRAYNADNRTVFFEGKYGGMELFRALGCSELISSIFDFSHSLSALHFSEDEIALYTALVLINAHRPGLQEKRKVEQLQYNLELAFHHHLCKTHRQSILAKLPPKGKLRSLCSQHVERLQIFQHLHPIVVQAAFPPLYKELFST

human RORγt = target: T2, human RORγt (Homo sapiens, UniProt P51449); experiment: IL-17 secretion from EL4 murine lymphoma overexpressing human RORγt; type: cell-based; parameters: expressed in transfected cells; host or cells: EL-4 murine lymphoma; settings: IL-17 secretion inhibition, PMA and ionomycin stimulation, 24 h
T2 sequence (P51449 1-497 isoform P51449-2): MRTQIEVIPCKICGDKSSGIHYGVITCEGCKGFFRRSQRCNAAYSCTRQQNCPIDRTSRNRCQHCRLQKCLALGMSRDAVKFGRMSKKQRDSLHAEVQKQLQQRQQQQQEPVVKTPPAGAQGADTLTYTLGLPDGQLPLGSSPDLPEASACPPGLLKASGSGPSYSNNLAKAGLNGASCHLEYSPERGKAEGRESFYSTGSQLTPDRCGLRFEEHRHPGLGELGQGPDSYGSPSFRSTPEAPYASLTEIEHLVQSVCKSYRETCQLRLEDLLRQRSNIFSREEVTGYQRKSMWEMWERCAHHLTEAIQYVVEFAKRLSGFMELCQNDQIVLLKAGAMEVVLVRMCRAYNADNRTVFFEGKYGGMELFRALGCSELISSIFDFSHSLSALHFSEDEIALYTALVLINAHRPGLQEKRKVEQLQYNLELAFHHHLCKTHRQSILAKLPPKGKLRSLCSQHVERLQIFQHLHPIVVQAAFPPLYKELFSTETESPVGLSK
Protocol: Murine EL-4 lymphoma cell line overexpressing human RORγt was used in this functional assay to assess compound ability to inhibit IL-17 cytokine secretion.
EL-4 cells are maintained in a standard culture medium RPMI supplemented with 10% fetal calf serum, 1% sodium pyruvate, 1% essential amino acids and 1% antibiotics at 37° C. in a humidified atmosphere of 5% CO2 and 95% air. Culture medium was changed every 2 days. EL4 cells were transfected with a plasmid encoding hRORγt (sequence identical to published sequence NM 001001523). […] Briefly, 1 μg of DNA/1 million cells was served to transfect EL-4 cells. Cell/DNA suspension was transferred into certified cuvette and the electroporation of RORγt plasmid was carried out using appropriate Nucleofector® program.
Cells were seeded in 96 well plates at a density of 150000 cells/well then treated with compounds of this invention at indicated concentrations and incubated for 24 hours at 37° C. in a humidified atmosphere of 5% CO2 and 95% air. EL-4 cells were pretreated with test compounds (RORγ modulators) and stimulated with PMA (10 ng/mL) and ionomycin (1 μM final concentration) in the presence of test compound concentrations for additional 24 h at 37° C. in a humidified atmosphere of 5% CO2 and 95% air. Subsequently, supernatants were collected (after centrifugation at 300 g for 10 minutes) to determine the concentrations of IL-17 by HTRF (CisBio, France) or ELISA (R&D Systems Europe) according to the manufacturer's protocols.

| SMILES | IC50 [1] | IC50 (human RORγt) |
| --- | --- | --- |
| CC(C)CC(NC(=O)Cc1ccc2[nH]cc(CCC(=O)O)c2c1)c1cccc2ccccc12 (stereo not drawn) [compound 105, 3-[5-({[3-methyl-1-(naphthalen-1-yl)butyl]carbamoyl}methyl)-1H-indol-3-yl]propanoic acid] | < 1 µM | 1 to 10 µM |
| CNC(=O)CCc1c[nH]c2ccc(CC(=O)NC(c3ccccc3)c3ccccc3N3CCCCC3)cc12 (stereo not drawn) [compound 115, N-methyl-3-{5-[({phenyl[2-(piperidin-1-yl)phenyl]methyl}carbamoyl)methyl]-1H-indol-3-yl}propanamide] | < 1 µM | 1 to 10 µM |
| O=C(O)CCc1c[nH]c2ccc(CC(=O)NC(c3ccccc3)c3cc(Br)ccc3N3CCCC3)cc12 (stereo not drawn) [compound 117, 3-{5-[({[5-bromo-2-(pyrrolidin-1-yl)phenyl](phenyl)methyl}carbamoyl)methyl]-1H-indol-3-yl}propanoic acid] | < 1 µM | 10 to 30 µM |
| CCNc1cc(C)ccc1C(NC(=O)Cc1ccc2[nH]cc(CCC(=O)O)c2c1)c1ccccc1 (stereo not drawn) [compound 120, 3-{5-[({[2-(ethylamino)-4-methylphenyl](phenyl)methyl}carbamoyl)methyl]-1H-indol-3-yl}propanoic acid] | < 1 µM | 1 to 10 µM |
| Cc1ccc(C(NC(=O)Cc2ccc3[nH]cc(CCC(=O)O)c3c2)c2ccccc2)c(NC(C)C)c1 (stereo not drawn) [compound 126, 3-(5-{[({4-methyl-2-[(propan-2-yl)amino]phenyl}(phenyl)methyl)carbamoyl]methyl}-1H-indol-3-yl)propanoic acid] | < 1 µM | 1 to 10 µM |
| Cc1ccc(C(NC(=O)Cc2ccc3[nH]cc(CCC(=O)O)c3c2)c2ccc(C)s2)c(N2CCCCC2)c1 (stereo not drawn) [compound 138, 3-{5-[({[4-methyl-2-(piperidin-1-yl)phenyl](5-methylthiophen-2-yl)methyl}carbamoyl)methyl]-1H-indol-3-yl}propanoic acid] | < 1 µM | 1 to 10 µM |
| Cc1ccc(C(NC(=O)Cc2ccc3[nH]cc(CCC(=O)O)c3c2)c2nccs2)c(N2CCCCC2)c1 (stereo not drawn) [compound 140, 3-{5-[({[4-methyl-2-(piperidin-1-yl)phenyl](1,3-thiazol-2-yl)methyl}carbamoyl)methyl]-1H-indol-3-yl}propanoic acid] | < 1 µM | 1 to 10 µM |
| COc1ccc(C(NC(=O)Cc2ccc3[nH]cc(CCC(=O)O)c3c2)c2ccccc2)c(N2CCCCCC2)c1 (stereo not drawn) [compound 142, 3-{5-[({[2-(azepan-1-yl)-4-methoxyphenyl](phenyl)methyl}carbamoyl)methyl]-1H-indol-3-yl}propanoic acid] | < 1 µM | 1 to 10 µM |
| O=C(O)CCc1c[nH]c2ccc(CC(=O)NC3(c4ccccc4N4CCCCC4)CCCCC3)cc12 [compound 144, 3-{5-[({1-[2-(piperidin-1-yl)phenyl]cyclohexyl}carbamoyl)methyl]-1H-indol-3-yl}propanoic acid] | < 1 µM | 1 to 10 µM |
| Cc1ccc(C(NC(=O)Cc2ccc3[nH]cc(CCC(=O)O)c3c2)c2ccccc2)c(OC(C)C)c1 (stereo not drawn) [compound 146, 3-{5-[({[4-methyl-2-(propan-2-yloxy)phenyl](phenyl)methyl}carbamoyl)methyl]-1H-indol-3-yl}propanoic acid] | < 1 µM | 1 to 10 µM |
| Cc1ccc(C(NC(=O)Cc2ccc3[nH]cc(CCC(=O)O)c3c2)c2ccccc2N2CCCCC2)o1 (stereo not drawn) [compound 148, 3-[5-({[(5-methylfuran-2-yl)[2-(piperidin-1-yl)phenyl]methyl]carbamoyl}methyl)-1H-indol-3-yl]propanoic acid] | < 1 µM | 1 to 10 µM |
| CCOc1ccc(C(NC(=O)Cc2ccc3[nH]cc(CCC(=O)O)c3c2)c2ccccc2)c(N2CCCCC2)c1 (stereo not drawn) [compound 150, 3-{5-[({[4-ethoxy-2-(piperidin-1-yl)phenyl](phenyl)methyl}carbamoyl)methyl]-1H-indol-3-yl}propanoic acid] | < 1 µM | 1 to 10 µM |
| CC(C)Oc1ccc(C(NC(=O)Cc2ccc3[nH]cc(CCC(=O)O)c3c2)c2ccccc2)c(N2CCCCC2)c1 (stereo not drawn) [compound 152, 3-{5-[({phenyl[2-(piperidin-1-yl)-4-(propan-2-yloxy)phenyl]methyl}carbamoyl)methyl]-1H-indol-3-yl}propanoic acid] | < 1 µM | 10 to 30 µM |
| Cc1ccc(C(NC(=O)Cc2ccc3[nH]nc(CCC(=O)O)c3c2)c2ccccc2)c(OC(C)C)c1 (stereo not drawn) [compound 160, 3-{5-[({[4-methyl-2-(propan-2-yloxy)phenyl](phenyl)methyl}carbamoyl)methyl]-1H-indazol-3-yl}propanoic acid] | < 1 µM | 10 to 30 µM |
| CCN(CC)c1ccccc1C(CC(C)C)NC(=O)Cc1ccc2[nH]cc(CCC(=O)O)c2c1 (stereo not drawn) [compound 174, 3-{5-[({1-[2-(diethylamino)phenyl]-3-methylbutyl}carbamoyl)methyl]-1H-indol-3-yl}propanoic acid] | 1 to 10 µM | 1 to 10 µM |
| Cc1ccc(C(NC(=O)Cc2ccc3[nH]cc(CCC(=O)O)c3c2)c2ccccc2N2CCCCC2)cc1 (stereo not drawn) [compound 188, 3-[5-({[(4-methylphenyl)[2-(piperidin-1-yl)phenyl]methyl]carbamoyl}methyl)-1H-indol-3-yl]propanoic acid] | < 1 µM | 10 to 30 µM |

Next, values leading:

| IC50 [1] | IC50 (human RORγt) | SMILES |
| --- | --- | --- |
| < 1 µM | 1 to 10 µM | O=C(O)CCc1c[nH]c2ccc(CC(=O)NC(c3ccccc3)c3ccc(Cl)cc3N3CCCC3)cc12 (stereo not drawn) [compound 91, 3-{5-[({[4-chloro-2-(pyrrolidin-1-yl)phenyl](phenyl)methyl}carbamoyl)methyl]-1H-indol-3-yl}propanoic acid] |
| < 1 µM | 1 to 10 µM | COc1ccc(C(NC(=O)Cc2ccc3[nH]cc(CCC(=O)O)c3c2)c2ccccc2)c(N2CCCC2)c1 (stereo not drawn) [compound 109, 3-{5-[({[4-methoxy-2-(pyrrolidin-1-yl)phenyl](phenyl)methyl}carbamoyl)methyl]-1H-indol-3-yl}propanoic acid] |
| < 1 µM | 1 to 10 µM | Cc1ccc(C(NC(=O)Cc2ccc3[nH]cc(CC(=O)N(C)C)c3c2)c2ccccc2)c(N2CCOCC2)c1 (stereo not drawn) [compound 112, N,N-dimethyl-2-{5-[({[4-methyl-2-(morpholin-4-yl)phenyl](phenyl)methyl}carbamoyl)methyl]-1H-indol-3-yl}acetamide] |
| < 1 µM | 1 to 10 µM | Cc1ccc(N2CCCCC2)c(C(NC(=O)Cc2ccc3[nH]cc(CCC(=O)O)c3c2)c2ccccc2)c1 (stereo not drawn) [compound 114, 3-{5-[({[5-methyl-2-(piperidin-1-yl)phenyl](phenyl)methyl}carbamoyl)methyl]-1H-indol-3-yl}propanoic acid] |
| < 1 µM | 1 to 10 µM | COc1ccc(N2CCCCC2)c(C(NC(=O)Cc2ccc3[nH]cc(CCC(=O)O)c3c2)c2ccccc2)c1 (stereo not drawn) [compound 136, 3-{5-[({[5-methoxy-2-(piperidin-1-yl)phenyl](phenyl)methyl}carbamoyl)methyl]-1H-indol-3-yl}propanoic acid] |
| < 1 µM | 1 to 10 µM | Cc1cccc(C(NC(=O)Cc2ccc3[nH]cc(CCC(=O)O)c3c2)c2ccccc2N2CCCCC2)c1 (stereo not drawn) [compound 158, 3-[5-({[(3-methylphenyl)[2-(piperidin-1-yl)phenyl]methyl]carbamoyl}methyl)-1H-indol-3-yl]propanoic acid] |
| 1 to 10 µM | 1 to 10 µM | O=C(O)CCc1c[nH]c2ccc(CC(=O)NC(CC3CCCCC3)c3ccccc3N3CCCCC3)cc12 (stereo not drawn) [compound 162, 3-{5-[({2-cyclohexyl-1-[2-(piperidin-1-yl)phenyl]ethyl}carbamoyl)methyl]-1H-indol-3-yl}propanoic acid] |
| < 1 µM | 1 to 10 µM | CC(C)(C)CC(NC(=O)Cc1ccc2[nH]cc(CCC(=O)O)c2c1)c1ccccc1N1CCCCC1 (stereo not drawn) [compound 186, 3-{5-[({3,3-dimethyl-1-[2-(piperidin-1-yl)phenyl]butyl}carbamoyl)methyl]-1H-indol-3-yl}propanoic acid] |
